Data from PubChem BioAssay AID248 (DTP/NCI, 2004).
Where “and” joins values, the source holds several entries; their conditions need not be identical. Identical values can stand only once. Inconclusive results and toxic doses are left out. No stated cut-off is given here; in the data, active means T/C of 150% or more; inactive means T/C below 125%.

System: L1210 leukemia ip in BDF1 mice, survival T/C
Test: NCI In Vivo Anticancer Drug Screen. Data for tumor model L1210 Leukemia (intraperitoneal) in B6D2F1 (BDF1) mice
Details: endpoint: mean survival time, higher = longer survival
In short: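 Transplanted-tumor mice were given test agent; controls received vehicle only. Survival readings from the two groups were divided (treated over control).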

[1] = dose: 100.0 mg/kg/injection, schedule: Q01DX009 (ip), vehicle: saline with Tween-80
[2] = dose: 200.0 mg/kg/injection, schedule: Q01DX009 (ip), vehicle: saline with Tween-80
[3] = dose: 75.0 mg/kg/injection, schedule: Q01DX001 (ip), vehicle: saline
[4] = dose: 150.0 mg/kg/injection, schedule: Q01DX001 (ip), vehicle: saline
[5] = dose: 300.0 mg/kg/injection, schedule: Q01DX001 (ip), vehicle: saline
[6] = dose: 25.0 mg/kg/injection, schedule: Q01DX009 (ip), vehicle: saline
[7] = dose: 50.0 mg/kg/injection, schedule: Q01DX009 (ip), vehicle: saline
[8] = dose: 100.0 mg/kg/injection, schedule: Q04DX003 (ip), vehicle: Klucel (hydroxypropylcellulose) (HPC)
[9] = dose: 200.0 mg/kg/injection, schedule: Q04DX003 (ip), vehicle: Klucel (hydroxypropylcellulose) (HPC)
[10] = dose: 400.0 mg/kg/injection, schedule: Q04DX003 (ip), vehicle: Klucel (hydroxypropylcellulose) (HPC)
[11] = dose: 100.0 mg/kg/injection, schedule: Q04DX003 (ip), vehicle: saline
[12] = dose: 200.0 mg/kg/injection, schedule: Q04DX003 (ip), vehicle: saline
[13] = dose: 400.0 mg/kg/injection, schedule: Q04DX003 (ip), vehicle: saline
[14] = dose: 100.0 mg/kg/injection, schedule: Q01DX001 (ip), vehicle: saline
[15] = dose: 200.0 mg/kg/injection, schedule: Q01DX001 (ip), vehicle: saline
[16] = dose: 400.0 mg/kg/injection, schedule: Q01DX001 (ip), vehicle: saline
[17] = dose: 100.0 mg/kg/injection, schedule: Q01DX001 (ip), vehicle: carboxymethylcellulose (CMC)
[18] = dose: 200.0 mg/kg/injection, schedule: Q01DX001 (ip), vehicle: carboxymethylcellulose (CMC)
[19] = dose: 400.0 mg/kg/injection, schedule: Q01DX001 (ip), vehicle: carboxymethylcellulose (CMC)
[20] = dose: 100.0 mg/kg/injection, schedule: Q01DX009 (ip), vehicle: Klucel (hydroxypropylcellulose) (HPC)
[21] = dose: 200.0 mg/kg/injection, schedule: Q01DX009 (ip), vehicle: Klucel (hydroxypropylcellulose) (HPC)

Measured: T/C

COc1ccc(CN(CCOC(=O)c2ccc(OC)cc2)CCN(CCOC(=O)c2ccc(OC)cc2)Cc2ccc(OC)cc2)cc1
inactive: dose: 12.5 mg/kg/injection, schedule: Q01DX009 (ip), vehicle: other 91 % of control | dose: 25.0 mg/kg/injection, schedule: Q01DX009 (ip), vehicle: other 86 % of control | dose: 25.0 mg/kg/injection, schedule: Q01DX009 (ip), vehicle: water 88 % of control | dose: 50.0 mg/kg/injection, schedule: Q01DX009 (ip), vehicle: other 91 % of control | dose: 50.0 mg/kg/injection, schedule: Q01DX009 (ip), vehicle: water 93 % of control | dose: 100.0 mg/kg/injection, schedule: Q01DX009 (ip), vehicle: other 88 % of control | dose: 100.0 mg/kg/injection, schedule: Q01DX009 (ip), vehicle: water 87 % of control | dose: 200.0 mg/kg/injection, schedule: Q01DX009 (ip), vehicle: water 88 % of control | dose: 400.0 mg/kg/injection, schedule: Q01DX009 (ip), vehicle: water 92 % of control

CC(=O)Oc1ccc2c3c(cccc13)CC2
inactive: [1] 97 % of control | [2] 96 % of control | dose: 400.0 mg/kg/injection, schedule: Q01DX009 (ip), vehicle: saline with Tween-80 92 % of control

O=C(Nc1ccccc1)Oc1ccc(Br)cc1Br
inactive: [3] 94 % of control | [4] 89 % of control | [5] 94 % of control

Nc1ccc(C(=O)CCCN2CCCCC2)cc1
inactive: dose: 12.5 mg/kg/injection, schedule: Q01DX009 (ip), vehicle: saline 103 % of control | [6] 97 % of control | [7] 100 % of control

O=C(OC1C=CCC1)c1ccc([N+](=O)[O-])cc1 (stereo not drawn)
inactive: [8] 97 % of control | [9] 93 % of control | [10] 93 % of control

C=CCC(CCCCCCCCCCCCC)C(=O)O (stereo not drawn)
inactive: dose: 100.0 mg/kg/injection, schedule: Q01DX001 (ip), vehicle: saline with Tween-80 96 % of control | dose: 200.0 mg/kg/injection, schedule: Q01DX001 (ip), vehicle: saline with Tween-80 105 % of control | dose: 400.0 mg/kg/injection, schedule: Q01DX001 (ip), vehicle: saline with Tween-80 101 % of control

CCOC(=O)/C=C/C(=O)O.[Fe]
inactive: [11] 101 % of control | [12] 95 % of control | [13] 101 % of control

CC1(C)OC(=O)C(=Cc2c(Cl)cccc2Cl)C(=O)O1
inactive: [14] 98 % of control | [1] 104 % of control | [11] 99 % of control | [15] 95 % of control | [2] 92 % of control | [12] 94 % of control | [16] 96 % of control | [13] 97 % of control

COC(=O)C1=COC(C)C2CN3CCc4c([nH]c5cc(OC)c(OC)cc45)C3CC12 (stereo not drawn)
inactive: dose: 50.0 mg/kg/injection, schedule: Q01DX Z (ip), vehicle: carboxymethylcellulose (CMC) 103 % of control | dose: 100.0 mg/kg/injection, schedule: Q01DX Z (ip), vehicle: carboxymethylcellulose (CMC) 105 % of control | dose: 200.0 mg/kg/injection, schedule: Q01DX Z (ip), vehicle: carboxymethylcellulose (CMC) 100 % of control | dose: 300.0 mg/kg/injection, schedule: Q01DX Z (ip), vehicle: carboxymethylcellulose (CMC) 105 % of control

CN(C)c1ccc(CC2CCOC2=O)cc1 (stereo not drawn)
inactive: dose: 50.0 mg/kg/injection, schedule: Q01DX001 (ip), vehicle: carboxymethylcellulose (CMC) 102 % of control | [17] 96 % of control | [18] 96 % of control | [19] 100 % of control

CCCCCCCCC(=O)N(C)CCO
inactive: [6] 104 % of control | [7] 96 % of control | dose: 100.0 mg/kg/injection, schedule: Q01DX009 (ip), vehicle: saline 100 % of control | [11] 109 % of control | dose: 200.0 mg/kg/injection, schedule: Q04DX003 (ip), vehicle: saline with Tween-80 95 % of control | [12] 98 % of control

CCOc1ccc(/C=N/NC(=O)c2ccccc2N)cc1OC
inactive: dose: 100.0 mg/kg/injection, schedule: Q04DX002 (ip), vehicle: Klucel (hydroxypropylcellulose) (HPC) 97 % of control | dose: 200.0 mg/kg/injection, schedule: Q04DX002 (ip), vehicle: Klucel (hydroxypropylcellulose) (HPC) 102 % of control | dose: 400.0 mg/kg/injection, schedule: Q04DX002 (ip), vehicle: Klucel (hydroxypropylcellulose) (HPC) 105 % of control

CCCCCCCCCCCCCCCC(=O)OC(C)CCC1CCCO1 (stereo not drawn)
inactive: [14] 90 % of control | [15] 95 % of control | [16] 90 % of control

COc1cc2c(cc1OC)CN1CCc3cc(OC)c(OC)cc3C1C2 (stereo not drawn)
inactive: dose: 50.0 mg/kg/injection, schedule: Q01DX009 (ip), vehicle: saline with Tween-80 93 % of control | [3] 100 % of control | [1] 93 % of control | [4] 100 % of control | [2] 93 % of control | [5] 101 % of control

COC(=O)NS(=O)(=O)C=C(c1ccccc1)c1ccccc1
inactive: [20] 106 % of control | [8] 96 % of control | [21] 106 % of control | [9] 108 % of control | [10] 86 % of control

CCc1c2cc3c(cc2cc2c4cc5c(cc4cc[n+]12)OCO5)OCO3 (tested in a mixture with another compound)
inactive: dose: 3.13 mg/kg/injection, schedule: Q01DX009 (ip), vehicle: Klucel (hydroxypropylcellulose) (HPC) 122 % of control | dose: 3.13 mg/kg/injection, schedule: Q04DX003 (ip), vehicle: Klucel (hydroxypropylcellulose) (HPC) 113 % of control | dose: 6.25 mg/kg/injection, schedule: Q01DX009 (ip), vehicle: Klucel (hydroxypropylcellulose) (HPC) 110 % of control | dose: 6.25 mg/kg/injection, schedule: Q04DX003 (ip), vehicle: Klucel (hydroxypropylcellulose) (HPC) 110 % of control | dose: 12.5 mg/kg/injection, schedule: Q04DX003 (ip), vehicle: Klucel (hydroxypropylcellulose) (HPC) 113 % of control and 115 % of control

CCCCN(CCCC)CCCNC(=S)Nc1ccccc1
inactive: [20] 94 % of control | [21] 100 % of control

N#Cc1cnc(N)c(C#N)c1
inactive: dose: 74.0 mg/kg/injection, schedule: Q01DX009 (ip), vehicle: Klucel (hydroxypropylcellulose) (HPC) 98 % of control | dose: 150.0 mg/kg/injection, schedule: Q01DX009 (ip), vehicle: Klucel (hydroxypropylcellulose) (HPC) 100 % of control

CC[N+](C)(CC)CCNC(c1ccc(OC)c(OC)c1)C(Cl)(Cl)Cl (stereo not drawn)
inactive: [3] 88 % of control

Cc1c(O)ccc2ccc(=O)oc12
inactive: [17] 98 % of control | [18] 90 % of control | [19] 93 % of control

CCC/C=N/Nc1ccnc(SC)n1
inactive: dose: 100.0 mg/kg/injection, schedule: Q01DX009 (ip), vehicle: gum acacia 97 % of control

Cc1ccccc1NC(=O)Nc1ccccc1C
inactive: [20] 97 % of control | [21] 106 % of control | dose: 400.0 mg/kg/injection, schedule: Q01DX009 (ip), vehicle: Klucel (hydroxypropylcellulose) (HPC) 93 % of control
